Data reported in patent US20260109690A1, “HDAC6 INHIBITORS AND METHOD OF THEIR USE” (Baerenkraft Therapeutics, LLC., priority 2024, published 2026).
pIC50: −log10 of the molar value.

How the values were obtained:
HDAC5 = HDAC5 (Homo sapiens, UniProt Q9UQL6); assay: HDAC selectivity panel: HDAC5; format: biochemical
[1] = test system: B6SJL.SOD1-G93A transgenic mouse model of amyotrophic lateral sclerosis; assay: ALS mouse model: wire suspension test (inverted screen test); format: in vivo, mice
Procedure: Wire hang test was used to measure the muscle strength of animals. During the test, the animals were placed on the top of a wire lid of a housing cage. Then the lid was inverted and slightly shaken to ensure the grip of animal on the lid. Latency to fall(s) off the lid was recorded. A total of 3 trials were recorded and averaged to analyze the data. A cutoff time of 90 s was used to end the trial.
Note: Behavioral tests were performed once in two weeks, i.e. at week 10, 12, 14 and 16.

HDAC7 = molecular target: T1, HDAC7 (Homo sapiens, UniProt Q8WUI4); assay: HDAC selectivity panel: HDAC7; format: biochemical
T1 sequence (Q8WUI4 1-952): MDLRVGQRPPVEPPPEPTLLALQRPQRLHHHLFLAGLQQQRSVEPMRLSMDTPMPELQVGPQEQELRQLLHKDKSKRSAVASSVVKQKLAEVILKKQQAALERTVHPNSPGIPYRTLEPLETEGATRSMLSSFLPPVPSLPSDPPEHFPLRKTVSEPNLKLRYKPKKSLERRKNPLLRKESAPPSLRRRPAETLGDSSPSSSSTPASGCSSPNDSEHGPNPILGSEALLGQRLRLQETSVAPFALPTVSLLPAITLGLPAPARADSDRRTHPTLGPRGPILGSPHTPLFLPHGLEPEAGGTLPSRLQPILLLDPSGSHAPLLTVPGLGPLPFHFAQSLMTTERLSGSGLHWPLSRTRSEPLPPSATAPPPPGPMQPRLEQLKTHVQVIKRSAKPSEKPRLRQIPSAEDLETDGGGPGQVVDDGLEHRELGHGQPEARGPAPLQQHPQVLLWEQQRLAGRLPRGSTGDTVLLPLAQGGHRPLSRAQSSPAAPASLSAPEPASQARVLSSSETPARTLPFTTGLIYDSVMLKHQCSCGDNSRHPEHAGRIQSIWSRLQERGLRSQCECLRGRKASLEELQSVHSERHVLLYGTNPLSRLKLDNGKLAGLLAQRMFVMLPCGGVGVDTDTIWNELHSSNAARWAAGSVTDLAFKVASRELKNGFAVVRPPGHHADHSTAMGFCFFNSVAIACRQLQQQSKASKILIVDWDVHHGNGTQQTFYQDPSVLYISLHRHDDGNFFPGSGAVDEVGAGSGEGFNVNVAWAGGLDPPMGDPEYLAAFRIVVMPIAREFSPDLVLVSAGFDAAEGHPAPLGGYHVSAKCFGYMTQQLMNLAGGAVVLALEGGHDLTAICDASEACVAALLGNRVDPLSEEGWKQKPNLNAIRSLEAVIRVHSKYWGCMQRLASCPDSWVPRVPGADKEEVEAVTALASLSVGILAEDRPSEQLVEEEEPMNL

HDAC2 = HDAC2 (Homo sapiens, UniProt Q92769); assay: HDAC selectivity panel: HDAC2; format: biochemical
Tg2576 AD Disease Mice [2] = assay: Tg2576 study: Y-maze test; format: in vivo; conditions: for # of Spontaneous Alterations (Y-Maze) / % Spontaneous Alterations (Y-Maze): G3 Tg2576 mice
Procedure: (§1) Mice were weighed and randomized into groups. All the test formulations were freshly administered to respective animals of each group as per body weight. Basal behavior of the animals was recorded and analyzed in open field, Y-Maze, and EPM. Post basal behavior, animals were treated with compound I-16 for the duration of 3 months (i.e., from 6 months until 9 months). During the treatment duration, animals were subjected to different behavioral tests such as OFT, Y-maze, and EPM at 7, 8 and 9 months. At the end of experiments (i.e., at 9 months) animals were subjected to Morris water maze test.
To test spatial working memory, animals were subjected to spontaneous alteration test in Y-maze (Arm length—57 cm). During the test, the animal was placed at the end of one arm and allowed to explore the arena for a duration of 10 minutes. During the testing session, the number of entries in each arm were recorded and % alterations were calculated.
% Spontaneous alteration=(Spontaneous alteration/Total Arm entries−2)×100

Tg2576 AD Disease Mice [3] = assay: Tg2576 study: elevated plus maze; format: in vivo; conditions: for Elevated Plus Maze time spent in Closed arms / Elevated Plus Maze time spent in Open arms: G3 Tg2576 mice
Procedure: as §1
Animals were subjected to elevated plus maze to evaluate anxiety-like behavior. Animals were placed in the centre of the arena with two open and two closed arms facing towards closed arms and allowed to explore the arena for a duration of 5 minutes. Animal behavior was video recorded using overhead video recording camera. Total time spent in the closed and open arms were quantified using automated animal tracking software Ethovision XT.

[4] = Tg2576 study: body weight; format: in vivo; conditions: G3 Tg2576 mice, 50 mg/kg (80 mg/kg from day 36) p.o., in g (unit assumed)
Procedure: Compound I-16 (free base; purity of 98.77%) was tested in a vehicle of PEG 400 (30%), Tween 80 (2%), and water (68%) at a concentration of […]. Dose formulations were prepared every day prior to dose administration. Oral dosages of 50 mg/kg were used unless otherwise indicated. 80 mg/kg doses were similarly prepared at a concentration of 8 mg/mL Male mice aged 6 months were used. 30 total animals were used with 10 animals in each group and 3 groups total. Groups were separated according to the following parameters.
as §1

[5] = G3 Tg2576 AD disease mice, 50 mg/kg
[6] = 50 mg/kg then 80 mg/kg from day 36 p.o., 8th months
[7] = 50 mg/kg then 80 mg/kg from day 36 p.o., 9th months
[8] = 6th months (Basal, before treatment)

Sequence of HDAC2 (Q92769 whole entry, species assumed): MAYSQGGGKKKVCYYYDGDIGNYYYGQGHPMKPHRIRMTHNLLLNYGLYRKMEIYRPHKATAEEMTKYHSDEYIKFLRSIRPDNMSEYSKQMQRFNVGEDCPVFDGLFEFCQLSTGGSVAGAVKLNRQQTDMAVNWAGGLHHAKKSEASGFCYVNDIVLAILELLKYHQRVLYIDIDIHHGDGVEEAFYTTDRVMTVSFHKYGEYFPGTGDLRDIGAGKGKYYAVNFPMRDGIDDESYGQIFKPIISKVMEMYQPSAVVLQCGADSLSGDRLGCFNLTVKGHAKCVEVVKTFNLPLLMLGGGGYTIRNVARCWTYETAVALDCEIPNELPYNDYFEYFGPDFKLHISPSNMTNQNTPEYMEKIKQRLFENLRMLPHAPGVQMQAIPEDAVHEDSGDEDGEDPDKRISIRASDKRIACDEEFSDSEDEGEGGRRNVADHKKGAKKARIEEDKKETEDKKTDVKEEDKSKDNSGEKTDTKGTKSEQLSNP
Sequence of HDAC5 (Q9UQL6 whole entry, species assumed): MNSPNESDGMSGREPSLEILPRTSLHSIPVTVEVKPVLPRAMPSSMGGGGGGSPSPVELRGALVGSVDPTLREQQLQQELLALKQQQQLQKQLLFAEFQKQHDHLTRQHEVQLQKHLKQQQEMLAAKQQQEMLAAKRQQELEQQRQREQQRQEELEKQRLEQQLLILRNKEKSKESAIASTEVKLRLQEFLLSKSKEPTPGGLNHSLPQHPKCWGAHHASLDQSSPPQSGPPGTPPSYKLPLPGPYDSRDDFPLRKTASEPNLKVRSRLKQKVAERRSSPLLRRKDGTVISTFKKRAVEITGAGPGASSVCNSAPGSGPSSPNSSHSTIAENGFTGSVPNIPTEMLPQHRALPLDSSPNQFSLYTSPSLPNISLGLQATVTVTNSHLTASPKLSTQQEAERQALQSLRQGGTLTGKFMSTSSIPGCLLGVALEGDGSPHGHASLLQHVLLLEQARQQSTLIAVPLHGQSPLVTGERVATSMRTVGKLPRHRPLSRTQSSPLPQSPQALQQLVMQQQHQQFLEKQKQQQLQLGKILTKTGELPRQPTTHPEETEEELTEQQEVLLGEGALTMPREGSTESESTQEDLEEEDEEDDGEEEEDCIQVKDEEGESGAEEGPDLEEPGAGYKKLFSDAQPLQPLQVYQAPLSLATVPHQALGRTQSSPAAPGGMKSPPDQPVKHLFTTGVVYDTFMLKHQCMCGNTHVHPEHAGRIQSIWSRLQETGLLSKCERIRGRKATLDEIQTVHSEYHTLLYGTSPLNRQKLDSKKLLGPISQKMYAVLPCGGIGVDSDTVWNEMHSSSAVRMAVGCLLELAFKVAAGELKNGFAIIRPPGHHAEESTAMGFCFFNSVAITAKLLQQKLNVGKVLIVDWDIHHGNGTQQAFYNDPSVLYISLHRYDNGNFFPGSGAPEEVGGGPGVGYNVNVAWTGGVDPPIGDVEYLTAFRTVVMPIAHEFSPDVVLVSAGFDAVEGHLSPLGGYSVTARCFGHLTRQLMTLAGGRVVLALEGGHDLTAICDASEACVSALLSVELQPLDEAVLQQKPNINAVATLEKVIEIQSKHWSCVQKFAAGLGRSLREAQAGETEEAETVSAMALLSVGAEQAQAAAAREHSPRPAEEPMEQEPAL

Structure (SMILES): CC1CN(Cc2ccc(Nc3nccc(-c4ccc(C(=O)NO)cc4)n3)cc2F)CCO1 (racemic) [Compound I-8, 4-(2-((3-fluoro-4-((2-methylmorpholino)methyl)phenyl)amino)pyrimidin-4-yl)-N-hydroxybenzamide]
- pIC50 (HDAC5): 5.11
- Wire Suspension test latency to fall ([1]; G3 15 mg/kg p.o. QD, Week 10): 49.70 ± 8.667 s
- Wire Suspension test latency to fall ([1]; G3 15 mg/kg p.o. QD, Week 12): 37.48 ± 9.92 s
- Wire Suspension test latency to fall ([1]; G3 15 mg/kg p.o. QD, Week 14): 19.22 ± 7.18 ^ seconds
- Wire Suspension test latency to fall ([1]; G3 15 mg/kg p.o. QD, Week 16): 3.71 ± 0.73 s
- latency to fall of the wire vs. G2 ([1]; G3 15 mg/kg, week 14): significant reduction in latency to fall of the wire
- Wire Suspension test latency to fall ([1]; G4 30 mg/kg (50 mg/kg from day 34) p.o. QD, Week 10): 60.38 ± 10.00 s
- Wire Suspension test latency to fall ([1]; G4 30 mg/kg (50 mg/kg from day 34) p.o. QD, Week 12): 45.46 ± 7.98 s
- Wire Suspension test latency to fall ([1]; G4 30 mg/kg (50 mg/kg from day 34) p.o. QD, Week 14): 28.13 ± 5.38 ^ seconds
- Wire Suspension test latency to fall ([1]; G4 30 mg/kg (50 mg/kg from day 34) p.o. QD, Week 16): 6.46 ± 1.58 s
- latency to fall of the wire vs. G2 ([1]; G4, week 14): significant reduction in latency to fall of the wire
- pIC50 (HDAC7): 4.91
- pIC50 (HDAC2): 5.55

Structure (SMILES): C[C@@H]1CN(Cc2ccc(Nc3nccc(-c4ccc(C(=O)NO)cc4)n3)cc2F)CCO1 [Compound I-16, (R)-4-(2-((3-fluoro-4-((2-methylmorpholino)methyl)phenyl)amino)pyrimidin-4-yl)-N-hydroxybenzamide]
- Y Maze: number of spontaneous alterations compared to G2 (Tg2576 + vehicle) (Tg2576 AD Disease Mice [2]; [5]): did not show any significant difference
- # of Spontaneous Alterations (Y-Maze) (Tg2576 AD Disease Mice [2]; 50 mg/kg p.o., 7th months): 18.70 ± 6.96
- % Spontaneous Alterations (Y-Maze) (Tg2576 AD Disease Mice [2]; 50 mg/kg p.o., 7th months): 57.59 ± 3.85%
- # of Spontaneous Alterations (Y-Maze) (Tg2576 AD Disease Mice [2]; [6]): 16.00 ± 2.59
- % Spontaneous Alterations (Y-Maze) (Tg2576 AD Disease Mice [2]; [6]): 41.65 ± 5.52%
- # of Spontaneous Alterations (Y-Maze) (Tg2576 AD Disease Mice [2]; [7]): 16.00 ± 2.48
- % Spontaneous Alterations (Y-Maze) (Tg2576 AD Disease Mice [2]; [7]): 43.66 ± 4.55%
- # of Spontaneous Alterations (Y-Maze) (Tg2576 AD Disease Mice [2]; [8]): 25.00 ± 5.19
- % Spontaneous Alterations (Y-Maze) (Tg2576 AD Disease Mice [2]; [8]): 53.60 ± 3.25%
- Elevated Plus Maze: time spent in open and closed arms compared to G2 (Tg2576 + vehicle) (Tg2576 AD Disease Mice [3]; [5]): did not show any significant difference
- Elevated Plus Maze time spent in Closed arms (Tg2576 AD Disease Mice [3]; 50 mg/kg p.o., 7th months): 165.48 ± 28.89
- Elevated Plus Maze time spent in Open arms (Tg2576 AD Disease Mice [3]; 50 mg/kg p.o., 7th months): 73.82 ± 27.58
- Elevated Plus Maze time spent in Closed arms (Tg2576 AD Disease Mice [3]; [6]): 245.27 ± 12.41
- Elevated Plus Maze time spent in Open arms (Tg2576 AD Disease Mice [3]; [6]): 54.73 ± 12.41
- Elevated Plus Maze time spent in Closed arms (Tg2576 AD Disease Mice [3]; [7]): 241.46 ± 11.16
- Elevated Plus Maze time spent in Open arms (Tg2576 AD Disease Mice [3]; [7]): 58.55 ± 11.16
- Elevated Plus Maze time spent in Closed arms (Tg2576 AD Disease Mice [3]; [8]): 110.86 ± 16.69
- Elevated Plus Maze time spent in Open arms (Tg2576 AD Disease Mice [3]; [8]): 82.94 ± 14.23
- Body weight ([4]; Day 0): 28.08 ± 0.84
- Body weight ([4]; Day 4): 27.31 ± 0.52
- Body weight ([4]; Day 7): 26.85 ± 0.66
- Body weight ([4]; Day 14): 28.27 ± 0.87
- Body weight ([4]; Day 21): 27.65 ± 0.86
- Body weight ([4]; Day 28): 28.23 ± 1.02
- Body weight ([4]; Day 35): 28.88 ± 0.55
- Body weight ([4]; Day 42): 28.35 ± 0.63
- Body weight ([4]; Day 49): 28.76 ± 0.76
- Body weight ([4]; Day 56): 27.77 ± 0.67
- Body weight ([4]; Day 63): 28.72 ± 1.03
- Body weight ([4]; Day 70): 29.54 ± 0.72
- Body weight ([4]; Day 77): 29.16 ± 0.71
- Body weight ([4]; Day 84): 29.14 ± 0.86
- Body weight ([4]; Day 91): 29.41 ± 0.78
